# Columns and labels:
# [1] = test system: hDFn cells; assay: CyQUANT Direct assay, DNA content of living cells; format: cell-based, human; conditions: vs control
# Description: (§1) PrestoBlue™ and CyQUANT™ Direct Assay. PrestoBlue™ and CyQuant™ (PBCQ) direct confirmation assay (from ThermoFisher®) for cell viability was used to assess the biocompatibility of hDFn cells in DMEM complete media with varying concentrations of rhamnolipids. Passage 5 hDFn cells were seeded at 11,200 cells/mL density into black wall, clear bottom 96-well tissue culture plates. The cells were placed inside the standing incubator at 37° C. and 5% CO2 until reaching 70-90% confluence. […] The plate layout included blank wells containing DMEM complete media and the corresponding rhamnolipid concentrations. Following 24 hours, 100 μL was removed from each well and replaced with 10 μL of the PrestoBlue reagent. The plates were then incubated for 20 minutes at 37° C. and 5% CO2 prior to being placed in the Biotek® Synergy HT fluorescence microplate reader at 590 nm with a gain value of 35. Afterward, 100 μL of the CyQuant reagent composition was added to all wells and incubated for 60 minutes. The plates were read using the same microplate reader at 528 nm with a gain of 70. The relative fluorescence units (RFU) were produced for all wells, correlating with the metabolic output per unit of DNA.
# (§2) Statistical Analysis. Statistically significant differences were determined using GraphPad Prism. The results of the cellular migration assay were analyzed with a one-way ANOVA and Tukey post hoc evaluation. The PBCQ assay was analyzed using a one-way ANOVA and Tukey post hoc evaluation. For all experiments, a p-value<0.05 was considered statistically significant in this study.
# (§3) The control scaffold, the SEM image of which is shown in FIG. 5A, was not impregnated with rhamnolipids, or had hDFn cells seeded onto it. In particular, the observable porosity is not structurally different in FIG. 5A compared to the other images (FIGS. 5B-5E) depicting impregnated scaffolds without cells. As the percentage of rhamnolipids increased, the porosity of the scaffold remained relatively similar to the control. […] Visually, the hDFn cells appeared to have been able to adhere and colonize onto impregnated scaffolds which could be further explored to better understand the cytocompatibility of rhamnolipids and if their morphology is influenced by the concentration of the surfactant. PrestoBlue™ and CyQUANT™ Direct Assay. The PrestoBlue™ and CyQUANT™ Direct assays were used to determine the cellular compatibility of hDFn cells when in the presence of rhamnolipids. The PrestoBlue™ assay is a resazurin-based solution when upon entering a living cell, the reagent is reduced to resorufin which is red in color and fluorescent. The overall health of the cell can be observed by changes in fluorescence and subsequently absorbance. […] The CyQUANT™ Direct assay is a cell-permeant green nucleic acid stain that is combined with a masking dye reagent. The masking dye stops the staining of non-viable cells or cells with compromised cell membranes, resulting in only the viable cells being stained. The CyQUANT™ Direct assay measures proliferation as well as membrane integrity. The data was evaluated using GraphPad Prism to run a one-way ANOVA.
# [2] = test system: neonatal human dermal fibroblast (hDFn) cells; assay: Cellular migration assay (scratch, mock wound), with or without uranyl nitrate (depleted uranium) exposure; format: cell-based
# Description: Preparation of Depleted Uranium Solution. Approximately 0.005 g of uranyl nitrate (UN) crystals, purchased from American Scientific were weighed and solubilized in 40 mL of Dulbecco's modified eagle medium (DMEM) containing 10% fetal bovine serum (FBS) (DMEM complete) from Gibco® to create an initial working stock solution. Uranyl nitrate stock underwent 60 seconds of pipette mixing to confirm proper disintegration prior to vacuum sterilization using a 0.22 μm filter. Molecular weight was used to calculate the appropriate starting molarity before utilizing weight-volume concentrations to obtain the following experimental dilutions: 0.1 μM, 0.2 μM, 1.0 μM, 2.0 μM, 10 μM, 20 μM made from the sterile-filtered stock solution.
# Cell Culture of Neonatal Human Dermal Fibroblasts (hDFn). Passage one neonatal human dermal fibroblast (hDFn) cells were purchased from Cell Applications, Inc. (P1, lot #1734). The hDFn cells were incubated at 37° C., 5% CO2, and passaged using a T-75 tissue culture flask from Corning, completing media changes every 48 hours until 90% confluency was met. Cells were subcultured at a density of 10×10^5 cells/mL, frozen in DMEM containing 10% DMSO, and stored at −80° C. for 24 hours before being placed in liquid nitrogen vapor phase for long-term preservation. The subsequent process was repeated until passage 4 isolates were frozen down.
# Rhamnolipid Solution. About 0.0125 g of rhamnolipids (Rha-C10-C10) from Glycosurf were weighed and diluted in 50 mL of 1× phosphate-buffered saline (PBS) to obtain a 200 μM rhamnolipid stock solution. The solution was heated prior to being vortexed for maximum dissolution and sterilized through a vacuum using a 0.22 μm filter. The molarity of rhamnolipid stock solution was found using actual mass ([…]) and molecular weight to calculate experiment dilutions of 6.25 μM, 50 μM, and 100 μM.
# Cellular Migration Assay. Human neonatal dermal fibroblasts (hDFn) passage 4, were seeded into a T-75 flask at 10×10^5 cells/mL density and grown in a standing incubator at 37° C., 5% CO2. Once 90% confluence was reached, hDFn were subcultured into 12-well plates, and respective UN treatments with or without rhamnolipids were added. After 24 hours, contents were removed, and the monolayer of fibroblasts was scratched vertically using a sterile pipet tip creating the mock wound (FIG. 1). Wells were then washed twice with Hanks' Balanced Salt Solution (HBSS). Respective treatments were added back into wells and cellular migration rates were monitored and imaged over time (0 hours, 12 hours, and 24 hours). Percent closure rates were collected using MATLAB®.
# as §2
# [3] = test system: Human dermal neonatal fibroblasts (hDFn); assay: Rhamnolipid vs. thioglycolipid comparative scratch assay; format: cell-based; conditions: 6.25-50 μM, over 24 hours, particularly at the 4-hour and 8-hour time marks, FIGS. 9, 10A-10B
# Description: Rhamnolipid vs. Thioglycolipid Comparative Scratch Assays. Human dermal neonatal fibroblasts (hDFn) were seeded in 3×12-well plates at 10,000 cell/cm^2. Media (Dulbecco's Modified Eagle Medium (DMEM)) was changed every 48 hours. Plates were imaged every 4 hours for 24 hours. Plates were analyzed via MATLAB® and RStudio®.
# [4] = test system: hDFn cells; assay: PrestoBlue assay, metabolic activity; format: cell-based, human; conditions: vs control
# Description: as §1, §2, §3
smiles,measurement,setting,value
"CCCCCCC[C@H](CC(=O)O)OC(=O)C[C@@H](CCCCCCC)O[C@@H]1O[C@@H](C)[C@H](O)[C@@H](O)[C@H]1O [rhamnolipids, Rha-C10-C10]",cellular DNA content (RFU),"[1]; 100 μM rhamnolipids, n=12 (FIG. 8B)",statistically significant decrease
same,living DNA content (RFU),"[1]; high concentration of rhamnolipids (50 μM), 24 hours, n=6 (FIG. 7B)",no statistically significant difference
same,living DNA content (RFU),"[1]; high concentration of rhamnolipids (50 μM), n=12 (FIG. 8B)",no statistically significant difference
same,cellular DNA content (RFU),"[1]; low concentration of rhamnolipids (6.25 μM), 24 hours, n=6 (FIG. 7B), Tukey's p<0.001",statistically significant increase
same,living DNA content (RFU),"[1]; low concentration of rhamnolipids (6.25 μM), n=12 (FIG. 8B)",no statistically significant difference
same,mean percent closure,"[2]; 24 hours post-wound, across the different treatments (considered closed)",no statistically significant difference
same,cellular migration (percent closure),"[2]; absence of UN, high dose of rhamnolipids (50 μM), 12 hours post-wound, vs control, Tukey's p=0.001",statistically significant increase
same,mean percent closure,"[2]; absence of UN, low concentration of rhamnolipids (6.25 μM), vs control",no statistically significant difference
same,percent closure (migration rate),"[2]; hDFn exposed to 0.1 μM UN + 50 μM rhamnolipids, 12 hours post-wound, vs control, p-value=0.021",statistically significant increase
same,percent closure (migration rate),"[2]; hDFn exposed to 1.0 μM UN + 6.25 μM rhamnolipids, 12 hours post-wound, p-value=0.012",statistically significant increase
same,percent closure (migration rate),"[2]; hDFn exposed to 1.0 μM UN + 50 μM rhamnolipids, 12 hours post-wound, vs control, p-value<0.001",statistically significant increase
same,percent closure (migration rate),"[2]; hDFn exposed to 10 μM UN + 50 μM rhamnolipids, 12 hours post-wound, vs control, p-value=0.009",statistically significant increase
same,wound healing (percent closure) compared with thioglycolipid compositions,[3],faster healing
same,metabolic activity (RFU),"[4]; 6.25 μM rhamnolipids, 24 hours, n=6 (FIG. 7A), Tukey's p<0.001",statistically significant increase
same,metabolic activity (RFU),"[4]; 6.25 μM rhamnolipids, n=12 (FIG. 8A), Tukey's p<0.001",statistically significant increase
same,metabolic activity (RFU),"[4]; 50 μM rhamnolipids, 24 hours, n=6 (FIG. 7A), Tukey's p<0.001",statistically significant increase
same,metabolic activity (RFU),"[4]; 50 μM rhamnolipids, n=12 (FIG. 8A), Tukey's p<0.001",statistically significant increase
same,metabolic activity (RFU),"[4]; maximum concentration of rhamnolipids (100 μM), n=12 (FIG. 8A)",statistically significant decrease

# — patent US20240173456A1, “THERAPEUTIC COMPOSITIONS FOR WOUND TREATMENT” (GlycoSurf, Inc., priority 2022, published 2024)
